According to patent US20230257385A1, “SALT AND SOLID FORMS OF TABERNANTHALOG” (priority 2021, published 2023):
Counter-ions that a name gives are not always drawn.

Key:
[1] = DVS analyses of sorbate salt Form A / Form C (Example 10); format: physicochemical
From the text: DVS analyses of Form A (Performed on batch reference: Experiment 11-Sample -A1) To determine whether Form A underwent form change at high % RH, DVS residues of Form A, from 0 to 80% RH and 0 to 90% RH, were examined. The specimens were equilibrated to constant mass, at 80% and 90% RH set-points, removed, placed in a capped vial, and analysed by XRPD and DSC. Based on the SC-XRD at 100 K, no regular voids in the crystal structure were large enough to accommodate non-crystal-bonded, molecular water with minimum probe radius of 1.4 Å.
The moisture sorption properties of the feed API were analysed by DVS Intrinsic instrument (Surface Measurement System). Approximately 20 to 50 mg of API was weighed onto an aluminium pan and loaded into the instrument equilibrated at 25° C. The sample was equilibrated under a dry atmosphere (0% relative humidity) for 60 minutes, before increasing the humidity from 0% to 30% at 5% step increment and from 30% to 90% at 10% step increment. A desorption cycle was also applied from 90% to 30% (10% step decrement) and from 30% to 0% (5% step decrement). A rate of change in mass per time unit (dm/dt) of 0.002%/min was set as the equilibrium parameter. Kinetic and isotherm graphs were calculated.
5. DVS Analyses: 0% to 90% DVS Mass Per Unit Time Equilibrated at Dm/Dt (0.0002%/Min)

[2] = Stability of sorbate salt at 95% RH (KNO3) at 20° C. (Example 10, Experiment 10); format: physicochemical; conditions: XRPD
Method: The samples were maintained under equilibrium humidity of 95% RH at 20° C. and monitored at 5 day by XRPD and 10 day time points by ^1H NMR, XRPD, DSC, TGA and PLM.
Experiment 10-Sample A was open-capped, and Experiment 10-Sample B was open-capped inside double, cable-tied, electrostatic polythene bags (to mimic a typical packaging configuration) and both were placed inside the same humidity chamber at 95% RH at 20° C. The powders were finely divided and distributed evenly over the base of the vial, such that equal material coverage across the panel was observed. The samples were sub-sampled at intervals of t=0, 5 d and 10 d and analysed by XRPD, DSC, TGA and ^1H NMR, for evidence of phase change or chemical degradation

[3] = listed as Tabernanthalog sorbate salt (Form A)

COc1ccc2c3c([nH]c2c1)CCN(C)CC3 [tabernanthalog sorbate salt]
DVS isotherm ([1]; 0% to 90% DVS, mass per unit time equilibrated at dm/dt (0.0002%/min)): slightly hygroscopic up to 80% RH
DVS 0 to 90 to 0% RH (dm/dt <0.002%) ([1]; RH 0.0, falling leg (90 to 0)): 0.0 (0.06%)
DVS 0 to 90 to 0% RH (dm/dt <0.002%) ([1]; RH 0.0, rising leg (0 to 90)): DVS 0 to 90 to 0% RH (dm/dt <0.002%): 0.0 (0.00%),
DVS 0 to 90 to 0% RH (dm/dt <0.002%) ([1]; RH 5.0, falling leg (90 to 0)): 0.05%
DVS 0 to 90 to 0% RH (dm/dt <0.002%) ([1]; RH 5.0, rising leg (0 to 90)): 0.0%
DVS 0 to 90 to 0% RH (dm/dt <0.002%) ([1]; RH 10.0, falling leg (90 to 0)): 0.04%
DVS 0 to 90 to 0% RH (dm/dt <0.002%) ([1]; RH 10.0, rising leg (0 to 90)): 0.01%
DVS 0 to 90 to 0% RH (dm/dt <0.002%) ([1]; RH 15.0, falling leg (90 to 0)): 0.03%
DVS 0 to 90 to 0% RH (dm/dt <0.002%) ([1]; RH 15.0, rising leg (0 to 90)): 0.01%
DVS 0 to 90 to 0% RH (dm/dt <0.002%) ([1]; RH 20.0, falling leg (90 to 0)): 0.02%
DVS 0 to 90 to 0% RH (dm/dt <0.002%) ([1]; RH 20.0, rising leg (0 to 90)): 0.02%
DVS 0 to 90 to 0% RH (dm/dt <0.002%) ([1]; RH 25.0, falling leg (90 to 0)): 0.00%
DVS 0 to 90 to 0% RH (dm/dt <0.002%) ([1]; RH 25.0, rising leg (0 to 90)): 0.03%
DVS 0 to 90 to 0% RH (dm/dt <0.002%) ([1]; RH 30.0, falling leg (90 to 0)): 0.00%
DVS 0 to 90 to 0% RH (dm/dt <0.002%) ([1]; RH 30.0, rising leg (0 to 90)): 0.03%
DVS 0 to 90 to 0% RH (dm/dt <0.002%) ([1]; RH 40.0, falling leg (90 to 0)): 0.03%
DVS 0 to 90 to 0% RH (dm/dt <0.002%) ([1]; RH 40.0, rising leg (0 to 90)): 0.05%
DVS 0 to 90 to 0% RH (dm/dt <0.002%) ([1]; RH 50.0, falling leg (90 to 0)): 0.06%
DVS 0 to 90 to 0% RH (dm/dt <0.002%) ([1]; RH 50.0, rising leg (0 to 90)): 0.07%
DVS 0 to 90 to 0% RH (dm/dt <0.002%) ([1]; RH 60.0, falling leg (90 to 0)): 0.18%
DVS 0 to 90 to 0% RH (dm/dt <0.002%) ([1]; RH 60.0, rising leg (0 to 90)): 0.10%
DVS 0 to 90 to 0% RH (dm/dt <0.002%) ([1]; RH 70.0, falling leg (90 to 0)): 0.30%
DVS 0 to 90 to 0% RH (dm/dt <0.002%) ([1]; RH 70.0, rising leg (0 to 90)): 0.14%
DVS 0 to 90 to 0% RH (dm/dt <0.002%) ([1]; RH 80.0, falling leg (90 to 0)): 0.48%
DVS 0 to 90 to 0% RH (dm/dt <0.002%) ([1]; RH 80.0, rising leg (0 to 90)): 0.21%
DVS 0 to 90 to 0% RH (dm/dt <0.002%) ([1]; RH 90.0, falling leg (90 to 0)): 0.98%
DVS 0 to 90 to 0% RH (dm/dt <0.002%) ([1]; RH 90.0, rising leg (0 to 90)): 0.98%
form of specimens retrieved post DVS (XRPD) ([1]; at 0%, 80% and 90% RH): consistent with Form A
water affinity ([1]; up to 90% RH (DVS)): ca. 1 % w/w
form change on storage, double-bagged (closed) vial [2]: At t=10 d, Form A converted to Pattern #2
form change on storage, open vial [2]: At t=5 d, Form A converted to Pattern #2
form change on storage, double-bagged (closed) vial [2, 3]: after 10 days
form change on storage, open vial [2, 3]: converted to Form C (Pattern #2) after 5 days
